Laboratory results as given in patent US12097260B2, “Temperature-responsive degradable hydrogels” (priority 2017, dated 2024).
Where two headings read alike, the source gives them in different places.

How the values were obtained:
[1] = Effect of comonomers on LCST (slope of LCST vs. mol %); format: physicochemical; conditions: comonomer in NIPAAm-based temperature-responsive polymers
From the text: The effect on LCST of a comonomer can be determined by preparing polymers with varying content and evaluating the slope of a line of best fit for the plot of LCST vs. mol % X, where X is the comonomer.

[2] = test system: S. aureus (BAA 1680); experiment: Minimum biofilm eradication concentration (MBEC) on rabbit muscle; format: cell-based
Procedure: (§1) MBEC of biofilms grown on rabbit muscle specimens in vitro was determined. The goal of the study was to compare the relative spectrum of antimicrobial activity of TOB and VANC either alone or in combination. […] This method also allows for controlled culture conditions and quantitative data without confounding phenomena that would be present in an animal model of infection such as variability throughout a single infection, host immune function, and release/transport of antimicrobials.
(§2) Aseptically obtained rabbit muscle samples (˜40 mg) were incubated in bacterial suspension for 3 days to allow biofilm growth. Tissue specimens were then rinsed and placed in separate wells of a 96-well plate. Medium containing various concentrations of antimicrobials (4000, 2000, 1000, 750, 500, 250, 125, 64, 32, 16, and 0 μg/mL) were then added to the wells containing the contaminated tissue samples. Plates were then incubated for either 6, 24, or 72 hours at 37° C. Following this “exposure time,” the antimicrobial-containing medium was removed and specimens were rinsed with antimicrobial-free growth medium at least 4 times to remove any residual antimicrobials. Then the specimens were subcultured in separate test tubes containing antimicrobial-free medium and incubated at 37° C.
(§3) In each series of specimens for a given strain, antimicrobial treatment, and exposure time, the lowest antimicrobial concentration showing no growth after 21 day subculture was measured to be the MBEC. If all subcultures were positive, the MBEC was determined to be >4000 μg/mL. Selected positive subcultures were confirmed by culture identification at a third-party diagnostic laboratory.

[3] = test system: S. epidermidis (35984); experiment: as above; format: cell-based
Procedure: as §1, §2, §3

[4] = test system: S. aureus (49230); experiment: as above; format: cell-based
Procedure: as §1, §2, §3

[5] = test system: E. coli (25922); experiment: as above; format: cell-based
Procedure: as §1, §2, §3

[6] = test system: S. aureus (BAA 1556); experiment: as above; format: cell-based
Procedure: as §1, §2, §3

[7] = test system: S. epidermidis (700583); experiment: as above; format: cell-based
Procedure: as §1, §2, §3

[8] = test system: P. aeruginosa (27853); experiment: as above; format: cell-based
Procedure: as §1, §2, §3

[9] = test system: E. faecalis (29212); experiment: as above; format: cell-based
Procedure: as §1, §2, §3

[10] = test system: S. epidermidis (29886); experiment: as above; format: cell-based
Procedure: as §1, §2, §3

[11] = test system: S. aureus ATCC 49230; experiment: Rabbit infection treatment model; format: in vivo; conditions: comparator treatments
Procedure: The present studies utilized the same rabbit infection treatment model initially adapted from Nelson and colleagues delivering tobramycin mixed into the hydrogel by the methods described herein. Twenty rabbits were infected with S. aureus ATCC 49230 and six rabbits were infected with MRSA ATCC BAA-1556. The polymer used in the hydrogels was PNJ18-DBLA with the composition reported in Table 34, and the hydrogel contained 3.14 wt % tobramycin as an active agent which was dissolved separately at the time of use and mixed with polymer solution by end-to-end syringe mixing.

[12] = Solubility in water; format: physicochemical
[13] = test system: Ten laboratory standard bacterial strains; experiment: MBEC summary over the bacterial strains tested; format: cell-based; conditions: for Strains with MBEC>1,000 μg/mL: 24 and 72 hr exposure
Procedure: Ten laboratory standard bacterial strains intended to represent the spectrum of pathogens found in surgical site infections were evaluated: 3 S. aureus (2 methicillin-resistant, 1 methicillin-sensitive), 4 S. epidermidis (1 methicillin-resistant, 3 methicillin-sensitive), K Faecalis, P. Aeruginosa, and E. Coli (ATCC #BAA-1556, BAA-1680, 49230, 35984, 29886, 700583, 14990, 29212, 27853, and 25922). Both MRSA strains tested (BAA-1556, BAA-1680) are susceptible or intermediately susceptible to both TOB and VANC. S. epidermidis (35984), P. aeruginosa (27853), and E. faecalis (29212) are tobramycin-resistant. None of the gram-positive organisms tested are resistant to vancomycin. Vancomycin is not effective against gram-negative bacteria (E. coli, P. aeruginosa).
as §3

[14] = Stability of hydrophobic comonomers in 95° C. stress conditions, pH 4, titration; format: physicochemical; conditions: up to 14 days at 95° C.
Procedure: Stability of additional monomers was also evaluated in 95° C. stress conditions as hydrophobic monomers with the function of decreasing the LCST. […] The polymers were dissolved at 50 mg/mL in 0.2 M sodium acetate-acetic acid buffer (pH 4). Separate samples of 5 mL each were incubated at 95° C. for 0, 2, 4, 7, or 14 days to evaluate stability of the hydrophobic monomers, as NIPAAm and JAAm are known to be relatively stable in these conditions. After the designated time, samples were cooled and stirred to re-dissolve the polymer, and the solution was dialyzed to remove salts and any degradants. Then 100 mg of the recovered material for each sample was dissolved in 10 mL deionized water and evaluated for acid content by titration using phenolphthalein as the indicator and 1 mM NaOH as the titrant. The titration data were corrected against a control sample which contained only deionized water, as about 0.9 mL of titrant in 10 mL was required for the indicator to change color.

[15] = dog, in vivo; cited from earlier work
[16] = cited from earlier work
[17] = Degradation vs. incubation temperature in 0.2 M phosphate buffer (accelerated stability method); format: physicochemical
Procedure: A high concentration of phosphate ions is known to decrease the LCST, an effect known as “salting-out.” Thus, the LCST values measured in this study are lower than for the same polymer in PBS. The polymer was dissolved at 3 mg/mL in 0.2 M phosphate buffer (pH 7.4). […] The buffer was not replaced. This was done to maintain a controlled experiment between temperatures because the samples at low temperatures contained polymer solution, preventing exchange of the buffer. Tubes contained transparent solution at 4° C. and slightly turbid solution at 22° C. Samples incubated at 40-80° C. formed opaque, milky solutions immediately upon heating. After overnight storage, samples incubated at 40-80° C. contained a separated solid precipitate phase at the bottom of the tube, and transparent overlying buffer. […] The LCST of each sample was determined using a cloud point method. […] At each temperature, the absorbance of the solution was measured using a spectrophotometer (450 nm). The temperature at which the absorbance was half of the maximum value was recorded as the LCST. […] For temperatures at which 30° C. was not measured, linear interpolation between the nearest two data points was used to calculate the time at which LCST reached 30° C. […] A separate study evaluated the polymer PNJ1.3-DB20 using the same methods with incubation at 4, 37, 60, and 80° C. in 0.2 M phosphate buffer (pH 7.4). […]

C=CC(=O)O [Acrylic acid]
Effect on LCST [1]: +2.6 ° C./mol %

C=C(C)C(=O)OCCCC [BMA, butyl methacrylate]
Effect on LCST [1]: −0.62 ° C./mol %

C=CC(=O)OCCCC [Butyl acrylate, butyl acrylate]
Effect on LCST [1]: −0.44 ° C./mol %

C=CC(=O)OC1C(=O)OCC1(C)C (stereo not drawn) [DBLA, dimethyl butyrolactone acrylate]
Effect on LCST [1]: −1.8 ° C./mol %

C=CC(=O)NC1C(=O)OCC1(C)C (stereo not drawn) [DBLAAm, dimethyl butyrolactone acrylamide]
Effect on LCST [1]: −0.51 ° C./mol %

NC[C@H]1O[C@H](O[C@H]2[C@H](O)[C@@H](O[C@H]3O[C@H](CO)[C@@H](O)[C@H](N)[C@H]3O)[C@H](N)C[C@@H]2N)[C@H](N)C[C@@H]1O [TOB, tobramycin]
MBEC ([2]; 6 hr exposure): >4000 µg/mL | MBEC ([2]; 24 hr exposure): >4000 µg/mL | MBEC ([2]; 72 hr exposure): 4000 µg/mL | MBEC ([3]; 6 hr exposure): >4000 µg/mL | MBEC ([3]; 24 hr exposure): >4000 µg/mL | MBEC ([3]; 72 hr exposure): >4000 µg/mL | MBEC ([4]; 6 hr exposure): 500 µg/mL | MBEC ([4]; 24 hr exposure): 375 µg/mL | MBEC ([4]; 72 hr exposure): 250 µg/mL | MBEC ([5]; 6 hr exposure): 250 µg/mL | MBEC ([5]; 24 hr exposure): 62 µg/mL | MBEC ([5]; 72 hr exposure): 62 µg/mL | MBEC ([6]; 6 hr exposure): 2000 µg/mL | MBEC ([6]; 24 hr exposure): 375 µg/mL | MBEC ([6]; 72 hr exposure): 250 µg/mL | MBEC ([7]; 6 hr exposure): 125 µg/mL | MBEC ([7]; 24 hr exposure): 250 µg/mL | MBEC ([7]; 72 hr exposure): 375 µg/mL | MBEC ([8]; 6 hr exposure): 2000 µg/mL | MBEC ([8]; 24 hr exposure): 375 µg/mL | MBEC ([8]; 72 hr exposure): 62 µg/mL | MBEC ([9]; 6 hr exposure): >4000 µg/mL | MBEC ([9]; 24 hr exposure): >4000 µg/mL | MBEC ([9]; 72 hr exposure): >4000 µg/mL | MBEC ([10]; 6 hr exposure): 125 µg/mL | MBEC ([10]; 24 hr exposure): 125 µg/mL | MBEC ([10]; 72 hr exposure): 31 µg/mL | Rabbits that remained infected [11]: 4/7 | Solubility in aqueous solutions ([12]; over a range of pH values): > 30 wt % | Strains with MBEC>1,000 μg/mL [13]: 3 strains | # Strains w/ MBEC ≥1000 μg/mL ([13]; 6 hr exposure): 5/10 | # Strains w/ MBEC ≥1000 μg/mL ([13]; 24 hr exposure): 3/10 | Max. MBEC ([13]; 24 hr exposure): >4000 µg/mL | Median MBEC ([13]; 24 hr exposure): 250 µg/mL | # Strains w/ MBEC ≥1000 μg/mL ([13]; 72 hr exposure): 3/10

C=CC(=O)NC(C)(C)C [Tert-butyl acrylamide, tert-butyl acrylamide]
Effect on LCST [1]: −0.41 ° C./mol %

C=CC(=O)OC(C)(C)C [Tert-butyl acrylate, tert-butyl acrylate]
Effect on LCST [1]: −0.69 ° C./mol % | Initial structure retained [14]: poorest stability

CN[C@H](CC(C)C)C(=O)N[C@H]1C(=O)N[C@@H](CC(N)=O)C(=O)N[C@H]2C(=O)N[C@H]3C(=O)N[C@H](C(=O)N[C@H](C(=O)O)c4cc(O)cc(O)c4-c4cc3ccc4O)[C@H](O)c3ccc(c(Cl)c3)Oc3cc2cc(c3O[C@@H]2O[C@H](CO)[C@@H](O)[C@H](O)[C@H]2O[C@H]2C[C@](C)(N)[C@H](O)[C@H](C)O2)Oc2ccc(cc2Cl)[C@H]1O [VANC, vancomycin]
MBEC ([2]; 6 hr exposure): 4000 µg/mL | MBEC ([2]; 24 hr exposure): 2000 µg/mL | MBEC ([2]; 72 hr exposure): 2000 µg/mL | MBEC ([3]; 6 hr exposure): 4000 µg/mL | MBEC ([3]; 24 hr exposure): 750 µg/mL | MBEC ([3]; 72 hr exposure): 375 µg/mL | MBEC ([4]; 6 hr exposure): >4000 µg/mL | MBEC ([4]; 24 hr exposure): >4000 µg/mL | MBEC ([4]; 72 hr exposure): 2000 µg/mL | MBEC ([5]; 6 hr exposure): >4000 µg/mL | MBEC ([5]; 24 hr exposure): >4000 µg/mL | MBEC ([5]; 72 hr exposure): >4000 µg/mL | MBEC ([6]; 6 hr exposure): 4000 µg/mL | MBEC ([6]; 24 hr exposure): 2000 µg/mL | MBEC ([6]; 72 hr exposure): 1000 µg/mL | MBEC ([7]; 6 hr exposure): 1000 µg/mL | MBEC ([7]; 24 hr exposure): 1000 µg/mL | MBEC ([7]; 72 hr exposure): 1000 µg/mL | MBEC ([8]; 6 hr exposure): >4000 µg/mL | MBEC ([8]; 24 hr exposure): >4000 µg/mL | MBEC ([8]; 72 hr exposure): >4000 µg/mL | MBEC ([9]; 6 hr exposure): 1000 µg/mL | MBEC ([9]; 24 hr exposure): 375 µg/mL | MBEC ([9]; 72 hr exposure): 250 µg/mL | MBEC ([10]; 6 hr exposure): 375 µg/mL | MBEC ([10]; 24 hr exposure): 375 µg/mL | MBEC ([10]; 72 hr exposure): 375 µg/mL | Maximum solubility ([12]; about pH 3): ~19 wt % | Solubility ([12]; pH 4-7.4): ≤ 2 wt % | Strains with MBEC>1,000 μg/mL [13]: 6 strains | # Strains w/ MBEC ≥1000 μg/mL ([13]; 6 hr exposure): 8/10 | # Strains w/ MBEC ≥1000 μg/mL ([13]; 24 hr exposure): 6/10 | Max. MBEC ([13]; 24 hr exposure): >4000 µg/mL | Median MBEC ([13]; 24 hr exposure): 750 µg/mL | # Strains w/ MBEC ≥1000 μg/mL ([13]; 72 hr exposure): 6/10

CCCCN1CCCCC1C(=O)Nc1c(C)cccc1C (stereo not drawn) [bupivacaine]
Toxic systemic levels [15]: 1,000-2,000 ng/mL | Water solubility [16]: approximately 200 μg/mL | Water solubility ([16]; higher pH above 7.64): less than 0.1 wt % | Water solubility ([16]; pH≈6): 2-5 wt %

poly(NIPAAm-co-DBLA-co-JAAm) [PNJ18-DBLA]
Degradation at 22° C., times faster than at 4° C. [17]: 3.63 times | Degradation at 80° C., times faster than at 40° C. [17]: 11.67 times
